From patent publication US8835472B2, “Compounds, pharmaceutical compositions and uses thereof” (Boehringer Ingelheim International GmbH, priority 2010, dated 2014) come the findings set out here.

Sequence of human ACC2 (O00763 129-2458): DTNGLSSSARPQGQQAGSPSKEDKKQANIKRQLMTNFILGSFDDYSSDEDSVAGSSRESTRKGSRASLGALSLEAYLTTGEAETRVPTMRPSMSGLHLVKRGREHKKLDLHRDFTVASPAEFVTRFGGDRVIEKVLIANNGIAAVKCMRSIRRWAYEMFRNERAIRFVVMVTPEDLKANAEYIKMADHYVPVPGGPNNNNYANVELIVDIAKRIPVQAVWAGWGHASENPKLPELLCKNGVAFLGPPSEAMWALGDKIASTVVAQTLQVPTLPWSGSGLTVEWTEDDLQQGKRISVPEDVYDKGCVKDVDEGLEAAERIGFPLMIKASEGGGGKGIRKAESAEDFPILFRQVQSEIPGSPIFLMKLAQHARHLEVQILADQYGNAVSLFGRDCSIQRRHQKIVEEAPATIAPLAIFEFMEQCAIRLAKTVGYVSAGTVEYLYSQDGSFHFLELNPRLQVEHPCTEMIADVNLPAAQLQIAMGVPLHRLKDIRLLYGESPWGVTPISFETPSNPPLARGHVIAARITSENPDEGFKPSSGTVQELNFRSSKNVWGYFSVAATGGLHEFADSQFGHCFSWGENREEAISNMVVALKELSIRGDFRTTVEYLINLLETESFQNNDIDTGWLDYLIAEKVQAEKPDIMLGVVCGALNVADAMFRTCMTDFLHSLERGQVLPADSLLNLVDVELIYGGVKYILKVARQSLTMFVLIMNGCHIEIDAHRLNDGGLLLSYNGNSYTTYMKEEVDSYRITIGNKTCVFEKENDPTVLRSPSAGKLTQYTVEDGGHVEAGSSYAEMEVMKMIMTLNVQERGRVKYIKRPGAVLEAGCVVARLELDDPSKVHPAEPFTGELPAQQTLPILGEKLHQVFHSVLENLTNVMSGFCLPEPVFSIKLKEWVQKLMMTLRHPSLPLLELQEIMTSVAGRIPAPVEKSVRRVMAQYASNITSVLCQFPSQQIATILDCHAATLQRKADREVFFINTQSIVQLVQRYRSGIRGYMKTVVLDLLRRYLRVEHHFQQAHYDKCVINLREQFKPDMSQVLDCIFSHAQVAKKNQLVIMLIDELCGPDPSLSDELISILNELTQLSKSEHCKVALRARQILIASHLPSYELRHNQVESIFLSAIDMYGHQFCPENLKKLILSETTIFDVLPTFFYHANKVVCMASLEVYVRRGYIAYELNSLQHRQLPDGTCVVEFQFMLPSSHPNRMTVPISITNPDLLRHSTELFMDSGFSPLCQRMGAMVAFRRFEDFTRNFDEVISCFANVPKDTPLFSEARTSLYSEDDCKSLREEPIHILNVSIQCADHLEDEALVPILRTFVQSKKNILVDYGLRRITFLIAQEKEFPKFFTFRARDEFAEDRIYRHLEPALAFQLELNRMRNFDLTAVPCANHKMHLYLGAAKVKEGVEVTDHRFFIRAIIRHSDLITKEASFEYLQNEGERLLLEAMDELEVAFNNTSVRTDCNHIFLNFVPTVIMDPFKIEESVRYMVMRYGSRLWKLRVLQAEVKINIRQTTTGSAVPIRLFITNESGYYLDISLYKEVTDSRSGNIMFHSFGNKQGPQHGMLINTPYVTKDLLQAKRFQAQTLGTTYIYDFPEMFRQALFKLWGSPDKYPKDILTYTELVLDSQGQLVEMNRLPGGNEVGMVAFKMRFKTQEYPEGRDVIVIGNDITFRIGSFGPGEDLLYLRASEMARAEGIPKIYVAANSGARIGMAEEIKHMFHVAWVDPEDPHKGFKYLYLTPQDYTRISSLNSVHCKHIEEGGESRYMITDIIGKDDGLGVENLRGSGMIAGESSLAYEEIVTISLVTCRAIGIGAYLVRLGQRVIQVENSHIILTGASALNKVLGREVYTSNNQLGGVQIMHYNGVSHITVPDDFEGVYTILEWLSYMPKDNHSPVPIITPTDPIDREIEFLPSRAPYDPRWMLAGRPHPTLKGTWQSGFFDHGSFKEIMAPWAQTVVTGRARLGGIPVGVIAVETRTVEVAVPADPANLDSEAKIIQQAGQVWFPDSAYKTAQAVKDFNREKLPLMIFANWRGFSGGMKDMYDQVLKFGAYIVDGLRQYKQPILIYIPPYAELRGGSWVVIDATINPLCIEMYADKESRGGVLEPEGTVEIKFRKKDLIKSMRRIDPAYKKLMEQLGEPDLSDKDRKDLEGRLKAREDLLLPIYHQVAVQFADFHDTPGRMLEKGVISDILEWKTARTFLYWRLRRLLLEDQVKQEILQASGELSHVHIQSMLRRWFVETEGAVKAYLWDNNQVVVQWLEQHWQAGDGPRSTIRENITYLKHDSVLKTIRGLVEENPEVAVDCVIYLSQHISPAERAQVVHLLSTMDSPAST

The target of the experiment is human ACC2 (Homo sapiens (Human), UniProt O00763). Kind of experiment: ACC2 assay, spectrophotometric 384 well assay (NADH-linked, coupled lactate dehydrogenase/pyruvate kinase reaction). It counts as biochemical. As to conditions: hACC2 construct lacking the 128 N-terminal amino acids; 25° C., 340 nm over 15 minutes. In short, it runs like this:
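Kinetic NADH-linked assay (pyruvate kinase/lactate dehydrogenase coupling) with baculovirus-expressed hACC2 missing its first 128 amino acids. Started with 500 μM ATP and 200 μM each NADH and acetyl-CoA; slope followed 15 min at 25 °C, pH 7.5. No-acetyl-CoA wells define 0%; IC50 by nonlinear regression.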
`CCOc1ccc(C#Cc2ccc(C(C)NC(=O)c3cnco3)cc2)cc1` (stereo not drawn) [Example 4.45] registered an IC50 of 530 nM.

Regarding `CCOc1ccc(C#Cc2ccc(C(C)NC(=O)C(C)OCC(F)(F)F)cc2)cc1` (stereo not drawn) [Example 4.46], the 50% inhibitory concentration (IC50) stood at 8500 nM.

The compound `CCOc1ccc(C#Cc2ccc(C(C)NC(=O)c3ccccn3)cc2)cc1` (stereo not drawn) [Example 4.47] had a concentration for half-maximal inhibition (IC50) of 2700 nM.

Turning to `CCOc1ccc(C#Cc2ccc(C(C)NC(=O)CO)cc2)cc1` (stereo not drawn) [Example 4.48], the IC50 is 3900 nM.

As for `CCOc1ccc(C#Cc2ccc(CC(C)NC(=O)C(C)(C)F)cc2)cc1` (stereo not drawn) [Example 4.49], inhibition was half-maximal at 8700 nM (IC50).

Consider `CCOc1ccc(C#Cc2ccc(CC(C)NC(=O)[C@H](C)OC)cc2)cc1` (stereo partly drawn) [Example 4.50], for which the half-maximal inhibitory concentration (IC50) was 6300 nM.

For the compound `CCOc1ccc(C#Cc2ccc(CC(C)NC(=O)C3(C)COC3)cc2)cc1` (stereo not drawn) [Example 4.51], the IC50 worked out at 510 nM.

The compound `CCOc1ccc(C#Cc2ccc(CC(C)NC(=O)c3c(C)noc3N)cc2)cc1` (stereo not drawn) [Example 4.52] came in with a half-inhibitory concentration (IC50) of 5100 nM.

Compound `CCOc1ccc(C#Cc2ccc(C(C)NC(=O)c3cncs3)cc2)cc1` (stereo not drawn) [Example 4.53] yielded an IC50 of 370 nM.

Regarding `CCOc1ccc(C#Cc2ccc(C(C)NC(=O)c3cocn3)cc2)cc1` (stereo not drawn) [Example 4.54], the half-inhibitory concentration (IC50) was determined as 30000 nM.

Turning to `CCOc1ccc(C#Cc2ccc(C(C)NC(=O)c3cn[nH]c3)cc2)cc1` (stereo not drawn) [Example 4.55], the half-maximal inhibitory concentration (IC50) was 330 nM.

Take `CCOc1ccc(C#Cc2ccc(CC(C)NC(=O)c3cocn3)cc2)cc1` (stereo not drawn) [Example 4.56]: 5600 nM corresponded to half-maximal inhibition (IC50).

`CCOc1ccc(C#Cc2ccc(CC(C)NC(=O)c3oc(C)nc3C)cc2)cc1` (stereo not drawn) [Example 4.57] displayed an IC50 of 990 nM.

As to `CCOc1ccc(C#Cc2ccc(CC(C)NC(=O)C3CCNC3=O)cc2)cc1` (stereo not drawn) [Example 4.58], the midpoint of inhibition, the IC50, lay at 680 nM.

`CCOc1ccc(C#Cc2ccc(CC(C)NC(=O)c3ccco3)cc2)cc1` (stereo not drawn) [Example 4.59] came in with a concentration for half-maximal inhibition (IC50) of 110 nM.

In turn, `CCOc1ccc(C#Cc2ccc(CC(C)NC(=O)c3ncn[nH]3)cc2)cc1` (stereo not drawn) [Example 4.60] showed an IC50 of 24700 nM.

Regarding `CCOc1ccc(C#Cc2ccc(CC(C)NC(=O)C(=O)N(C)C)cc2)cc1` (stereo not drawn) [Example 4.61], the 50% inhibitory concentration (IC50) turned out to be 10100 nM.

`CCOc1ccc(C#Cc2ccc(CC(C)NC(=O)C3CC(=O)N(C)C3)cc2)cc1` (stereo not drawn) [Example 4.62] gave an IC50 of 3700 nM.

As to `CCOc1ccc(C#Cc2ccc(CC(C)NC(=O)C3(C#N)CC3)cc2)cc1` (stereo not drawn) [Example 4.63], half-maximal inhibition (IC50) was put at 920 nM.

Consider `CCOc1ccc(C#Cc2ccc(CC(C)NC(=O)C3CCC(=O)NC3)cc2)cc1` (stereo not drawn) [Example 4.64], for which half-maximal inhibition (IC50) required 5100 nM.

In turn, `CCOc1ccc(C#Cc2ccc(CC(C)NC(=O)c3ccon3)cc2)cc1` (stereo not drawn) [Example 4.65] displayed an IC50 of 1100 nM.

Compound `CCOc1ccc(C#Cc2ccc(CC(C)NC(=O)c3cnc[nH]3)cc2)cc1` (stereo not drawn) [Example 4.66] displayed an IC50 of 4700 nM.

Compound `CCOc1ccc(C#Cc2ccc(CC(C)NC(=O)c3cncs3)cc2)cc1` (stereo not drawn) [Example 4.67] showed a concentration for half-maximal inhibition (IC50) of 70 nM.

For the compound `CCOc1ccc(C#Cc2ccc(CC(C)NC(=O)c3cc[nH]c3)cc2)cc1` (stereo not drawn) [Example 4.68], the IC50 amounted to 450 nM.

For `CCOc1ccc(C#Cc2ccc(CC(C)NC(=O)c3cn[nH]c3)cc2)cc1` (stereo not drawn) [Example 4.69], the IC50 worked out at 70 nM.

In turn, `CCOc1ccc(C#Cc2ccc(CC(C)NC(=O)CCNC(C)=O)cc2)cc1` (stereo not drawn) [Example 4.70] registered a concentration for half-maximal inhibition (IC50) of 1300 nM.

As for `CCOc1ccc(C#Cc2ccc(CC(C)NC(=O)c3ocnc3C)cc2)cc1` (stereo not drawn) [Example 4.71], the IC50 is 430 nM.

With `CCOc1ccc(C#Cc2ccc(CC(C)NC(=O)c3cnon3)cc2)cc1` (stereo not drawn) [Example 4.72], the IC50 is 940 nM.

`CCOc1ccc(C#Cc2ccc(CC(C)NC(=O)c3nc[nH]n3)cc2)cc1` (stereo not drawn) [Example 4.73] gave an IC50 of 19200 nM.

On to `CCOc1ccc(C#Cc2ccc(CC(C)NC(=O)C3CCNC3)cc2)cc1` (stereo not drawn) [Example 4.74], for which 2800 nM corresponded to half-maximal inhibition (IC50).

`CCOc1ccc(C#Cc2ccc(C(C)NC(=O)C3CC3C)cc2)cc1` (stereo not drawn) [Example 4.75] returned an IC50 of 15400 nM.

Turning to `CC(CNC(=O)CC#N)c1ccc(C#Cc2cnc(OC3CCC3)nc2)cc1` (stereo not drawn) [Example 4.76], half-maximal inhibition (IC50) was put at 660 nM.

Take `CC(CNC(=O)c1cn[nH]c1)c1ccc(C#Cc2cnc(OC3CCC3)nc2)cc1` (stereo not drawn) [Example 4.77]: the half-maximal inhibitory concentration (IC50) was 460 nM.

In the case of `CCC(=O)NCC(C)c1ccc(C#Cc2cnc(OC3CCC3)nc2)cc1` (stereo not drawn) [Example 4.78], the midpoint of inhibition, the IC50, lay at 290 nM.

For `CC(CNC(=O)C(F)F)c1ccc(C#Cc2cnc(OC3CCC3)nc2)cc1` (stereo not drawn) [Example 4.79], the IC50 is 160 nM.

As for `COc1ncc(C#Cc2ccc(C(C)CNC(=O)c3cn[nH]c3)cc2)cn1` (stereo not drawn) [Example 4.80], the 50% inhibitory concentration (IC50) was 7700 nM.

The compound `CCOc1ccc(C#Cc2ccc(CC(C)NS(=O)(=O)C3CC3)cc2)cc1` (stereo not drawn) [Example 5.1] gave an IC50 of 250 nM.

For `CCOc1ccc(C#Cc2ccc(C(C)NS(=O)(=O)CC3CC3)cc2)cc1` (stereo not drawn) [Example 5.2], the IC50 turned out to be 7200 nM.

As for `CCCS(=O)(=O)NC(C)Cc1ccc(C#Cc2ccc(OCC)cc2)cc1` (stereo not drawn) [Example 5.3], the 50% inhibitory concentration (IC50) is 1200 nM.

`CCOc1ccc(C#Cc2ccc(CC(C)NS(C)(=O)=O)cc2)cc1` (stereo not drawn) [Example 5.4] had a half-maximal inhibitory concentration (IC50) of 330 nM.

Compound `CCOc1ccc(C#Cc2ccc(C(C)NC(=O)Nc3ccc(N(C)C)cc3)cc2)cc1` (stereo not drawn) [Example 6.1] registered a half-inhibitory concentration (IC50) of 30000 nM.

On to `CCOc1ccc(C#Cc2ccc(C(C)NC(=O)Nc3cccnc3)cc2)cc1` (stereo not drawn) [Example 6.2], for which the midpoint of inhibition, the IC50, lay at 2200 nM.

For the compound `CCNC(=O)NC(C)Cc1ccc(C#Cc2ccc(OCC)cc2)cc1` (stereo not drawn) [Example 6.3], half-maximal inhibition (IC50) was put at 230 nM.

The compound `CCOc1ccc(C#Cc2ccc(C(C)NC(=O)NCC(=O)O)cc2)cc1` (stereo not drawn) [Example 6.4] returned an IC50 of 9600 nM.

Consider `CCOc1ccc(C#Cc2ccc(C(C)NC(=O)N(C)C)cc2)cc1` (stereo not drawn) [Example 7.1, 3-(1-(4-((4-Ethoxyphenyl)ethynyl)phenyl)ethyl)-1,1-dimethylurea], for which the IC50 was 620 nM.

Compound `CCOc1ccc(C#Cc2ccc(CC(C)NC(=O)N(C)C)cc2)cc1` (stereo not drawn) [Example 7.2] displayed a half-inhibitory concentration (IC50) of 190 nM.

Regarding `CCOc1ccc(C#Cc2ccc(CC(C)NC(=O)N(C)CC)cc2)cc1` (stereo not drawn) [Example 7.3], 360 nM corresponded to half-maximal inhibition (IC50).

With `CC(=O)NC(C)Cc1ccc(C#Cc2ccc(C(=O)N3CCCCC3)cc2)cc1` (stereo not drawn) [Example 8.1, N-(1-(4-((4-(piperidine-1-carbonyl)phenyl)ethynyl)phenyl)propan-2-yl)acetamide], the half-inhibitory concentration (IC50) came out at 500 nM.

`CC(=O)NC(C)Cc1ccc(C#Cc2ccc(C(=O)N(C)Cc3nc(C)oc3C)cc2)cc1` (stereo not drawn) [Example 8.2] came in with an IC50 of 5600 nM.

In the case of `CC(=O)NC(C)Cc1ccc(C#Cc2ccc(C(=O)NCc3cccnc3)cc2)cc1` (stereo not drawn) [Example 8.3], the half-inhibitory concentration (IC50) is 13000 nM.

In the case of `CC(=O)NC(C)Cc1ccc(C#Cc2ccc(C(=O)NC3CCCC3)cc2)cc1` (stereo not drawn) [Example 8.4], the IC50 was found to be 1600 nM.

`CC(=O)NC(C)Cc1ccc(C#Cc2ccc(C(=O)NCC3CC3)cc2)cc1` (stereo not drawn) [Example 8.6] returned an IC50 of 1500 nM.

Compound `CC(=O)NC(C)Cc1ccc(C#Cc2ccc(C(=O)NCC3CCCO3)cc2)cc1` (stereo not drawn) [Example 8.7] returned an IC50 of 26300 nM.

Regarding `CC(=O)NC(C)Cc1ccc(C#Cc2ccc(C(=O)N(C)Cc3ccccc3)cc2)cc1` (stereo not drawn) [Example 8.9], the IC50 is 3700 nM.

`CCCN(C)C(=O)c1ccc(C#Cc2ccc(CC(C)NC(C)=O)cc2)cc1` (stereo not drawn) [Example 8.10] registered an IC50 of 1100 nM.

On to `CC(=O)NC(C)Cc1ccc(C#Cc2ccc(C(=O)NCc3ccncc3)cc2)cc1` (stereo not drawn) [Example 8.11], for which the IC50 is 16600 nM.

Consider `CC(=O)NC(C)Cc1ccc(C#Cc2ccc(C(=O)N3Cc4ccccc4C3)cc2)cc1` (stereo not drawn) [Example 8.12], for which half-maximal inhibition (IC50) was put at 1500 nM.

`CC(=O)NC(C)Cc1ccc(C#Cc2ccc(C(=O)N(C)C3CCCC3)cc2)cc1` (stereo not drawn) [Example 8.13] had a 50% inhibitory concentration (IC50) of 2400 nM.

`CC(=O)NC(C)Cc1ccc(C#Cc2ccc(C(=O)N(C)Cc3cccnc3)cc2)cc1` (stereo not drawn) [Example 8.14] yielded a concentration for half-maximal inhibition (IC50) of 11500 nM.

In turn, `CC(=O)NC(C)Cc1ccc(C#Cc2ccc(C(=O)N3CCC3)cc2)cc1` (stereo not drawn) [Example 8.15] displayed a 50% inhibitory concentration (IC50) of 2200 nM.

For the compound `CC(=O)NC(C)Cc1ccc(C#Cc2ccc(C(=O)N3CCC(C)(C)CC3)cc2)cc1` (stereo not drawn) [Example 8.16], the IC50 was 1900 nM.

`CCNC(=O)c1ccc(C#Cc2ccc(CC(C)NC(C)=O)cc2)cc1` (stereo not drawn) [Example 8.17]: the IC50 was 4400 nM.

`CC(=O)NC(C)Cc1ccc(C#Cc2cccc(C(=O)NCC(F)(F)F)c2)cc1` (stereo not drawn) [Example 8.18]: half-maximal inhibition (IC50) was put at 7700 nM.

In turn, `CC(=O)NC(C)Cc1ccc(C#Cc2ccc(C(=O)N(C)c3ccccc3)cc2)cc1` (stereo not drawn) [Example 8.19] displayed a concentration for half-maximal inhibition (IC50) of 4600 nM.

In the case of `CC(=O)NC(C)Cc1ccc(C#Cc2ccc(C(=O)NC(C)C)cc2)cc1` (stereo not drawn) [Example 8.20], the midpoint of inhibition, the IC50, lay at 4400 nM.

With `CC(=O)NC(C)Cc1ccc(C#Cc2ccc(C(=O)NC3CCC3)cc2)cc1` (stereo not drawn) [Example 8.21], inhibition was half-maximal at 1400 nM (IC50).

On to `CC(=O)NC(C)Cc1ccc(C#Cc2cccc(C(=O)N(C)CCO)c2)cc1` (stereo not drawn) [Example 8.22], for which 6500 nM corresponded to half-maximal inhibition (IC50).

`CC(=O)NC(C)Cc1ccc(C#Cc2cccc(C(=O)NCc3ccccn3)c2)cc1` (stereo not drawn) [Example 8.23] registered a 50% inhibitory concentration (IC50) of 10900 nM.

`CC(=O)NC(C)Cc1ccc(C#Cc2cccc(C(=O)NCCN3CCOCC3)c2)cc1` (stereo not drawn) [Example 8.24] returned a half-maximal inhibitory concentration (IC50) of 30000 nM.

`CCCN(C)C(=O)c1cccc(C#Cc2ccc(CC(C)NC(C)=O)cc2)c1` (stereo not drawn) [Example 8.25] came in with an IC50 of 2400 nM.

For the compound `CC(=O)NC(C)Cc1ccc(C#Cc2cccc(C(=O)NC3CCCC3)c2)cc1` (stereo not drawn) [Example 8.26], half-maximal inhibition (IC50) was put at 1500 nM.

`COCCNC(=O)c1cccc(C#Cc2ccc(CC(C)NC(C)=O)cc2)c1` (stereo not drawn) [Example 8.27] had a 50% inhibitory concentration (IC50) of 11100 nM.

As to `CC(=O)NC(C)Cc1ccc(C#Cc2cccc(C(=O)NCC3CC3)c2)cc1` (stereo not drawn) [Example 8.28], the half-inhibitory concentration (IC50) was found to be 5000 nM.

`CC(=O)NC(C)Cc1ccc(C#Cc2cccc(C(=O)NCC3CCCO3)c2)cc1` (stereo not drawn) [Example 8.29] registered an IC50 of 4500 nM.

`CC(=O)NC(C)Cc1ccc(C#Cc2cccc(C(=O)NCC(C)C)c2)cc1` (stereo not drawn) [Example 8.30] registered a half-maximal inhibitory concentration (IC50) of 2800 nM.
